Source: the NIST ThermoML archive (doi:10.1021/acs.jced.7b00694)
± gives the expanded uncertainty stated by the source.

Experiment: xn = mol fraction of the nth substance listed
Conditions: Gas, Buoyancy - hydrostatic balance with magnetic suspension - one sinker

[HH] [hydrogen] + N#N
Conditions	mass density [kg/m3]
324.95 K, 4997 kPa, x2 = 0.95	49.08 ± 0.057
324.95 K, 4998 kPa, x2 = 0.9	46.597 ± 0.055
324.95 K, 5000 kPa, x2 = 0.5001	27.194 ± 0.038
324.95 K, 5997 kPa, x2 = 0.9	55.762 ± 0.055
324.95 K, 5997 kPa, x2 = 0.95	58.767 ± 0.057
324.95 K, 6001 kPa, x2 = 0.5001	32.482 ± 0.038
324.95 K, 6997 kPa, x2 = 0.9	64.863 ± 0.056
324.95 K, 7000 kPa, x2 = 0.95	68.408 ± 0.058
324.95 K, 7002 kPa, x2 = 0.5001	37.712 ± 0.038
324.95 K, 7996 kPa, x2 = 0.5001	42.85 ± 0.039
324.95 K, 7997 kPa, x2 = 0.95	77.913 ± 0.058
324.95 K, 7998 kPa, x2 = 0.9	73.894 ± 0.056
324.95 K, 8997 kPa, x2 = 0.5001	47.967 ± 0.039
324.95 K, 8998 kPa, x2 = 0.9	82.834 ± 0.056
324.95 K, 8999 kPa, x2 = 0.95	87.379 ± 0.059
324.95 K, 9998 kPa, x2 = 0.5001	53.025 ± 0.039
324.95 K, 9998 kPa, x2 = 0.9	91.672 ± 0.057
324.95 K, 9999 kPa, x2 = 0.95	96.736 ± 0.059
324.95 K, 10996 kPa, x2 = 0.5001	58.014 ± 0.04
324.95 K, 10996 kPa, x2 = 0.95	105.963 ± 0.059
324.95 K, 10997 kPa, x2 = 0.9	100.42 ± 0.057
324.95 K, 11997 kPa, x2 = 0.5001	62.949 ± 0.04
324.95 K, 11999 kPa, x2 = 0.9	109.068 ± 0.058
324.95 K, 12979 kPa, x2 = 0.95	123.971 ± 0.06
324.95 K, 12995 kPa, x2 = 0.5001	67.81 ± 0.041
324.95 K, 13000 kPa, x2 = 0.9	117.611 ± 0.058
324.95 K, 13992 kPa, x2 = 0.5001	72.609 ± 0.04
324.95 K, 13997 kPa, x2 = 0.9	126.005 ± 0.059
324.95 K, 13998 kPa, x2 = 0.95	133.041 ± 0.061
324.95 K, 14993 kPa, x2 = 0.5001	77.366 ± 0.041
324.95 K, 14996 kPa, x2 = 0.9	134.301 ± 0.059
324.95 K, 15985 kPa, x2 = 0.5001	82.016 ± 0.042
324.95 K, 15998 kPa, x2 = 0.9	142.496 ± 0.059
324.95 K, 16998 kPa, x2 = 0.5001	86.706 ± 0.042
324.95 K, 17000 kPa, x2 = 0.9	150.561 ± 0.059
324.95 K, 17998 kPa, x2 = 0.5001	91.271 ± 0.043
324.95 K, 18003 kPa, x2 = 0.9	158.509 ± 0.06
324.95 K, 18996 kPa, x2 = 0.5001	95.768 ± 0.043
324.95 K, 19001 kPa, x2 = 0.9	166.298 ± 0.061
324.95 K, 19974 kPa, x2 = 0.5001	100.115 ± 0.045
349.93 K, 2982 kPa, x2 = 0.95	27.214 ± 0.052
349.93 K, 12999 kPa, x2 = 0.95	114.314 ± 0.057
349.93 K, 13999 kPa, x2 = 0.95	122.495 ± 0.057
349.93 K, 14993 kPa, x2 = 0.95	130.518 ± 0.058
349.93 K, 15998 kPa, x2 = 0.95	138.524 ± 0.058
349.94 K, 997 kPa, x2 = 0.95	9.137 ± 0.052
349.94 K, 998 kPa, x2 = 0.9	8.697 ± 0.05
349.94 K, 999 kPa, x2 = 0.5001	5.133 ± 0.035
349.94 K, 1998 kPa, x2 = 0.5001	10.223 ± 0.035
349.94 K, 1998 kPa, x2 = 0.95	18.271 ± 0.052
349.94 K, 1999 kPa, x2 = 0.9	17.375 ± 0.05
349.94 K, 2979 kPa, x2 = 0.9	25.835 ± 0.05
349.94 K, 2984 kPa, x2 = 0.5001	15.198 ± 0.036
349.94 K, 3995 kPa, x2 = 0.5001	20.259 ± 0.036
349.94 K, 3997 kPa, x2 = 0.95	36.385 ± 0.053
349.94 K, 3998 kPa, x2 = 0.9	34.568 ± 0.051
349.94 K, 4998 kPa, x2 = 0.9	43.083 ± 0.051
349.94 K, 4998 kPa, x2 = 0.95	45.368 ± 0.053
349.94 K, 5000 kPa, x2 = 0.5001	25.225 ± 0.036
349.94 K, 5998 kPa, x2 = 0.5001	30.119 ± 0.037
349.94 K, 5998 kPa, x2 = 0.9	51.533 ± 0.052
349.94 K, 5998 kPa, x2 = 0.95	54.273 ± 0.054
349.94 K, 6996 kPa, x2 = 0.5001	34.959 ± 0.037
349.94 K, 6996 kPa, x2 = 0.95	63.099 ± 0.054
349.94 K, 6997 kPa, x2 = 0.9	59.903 ± 0.052
349.94 K, 7995 kPa, x2 = 0.5001	39.749 ± 0.037
349.94 K, 7998 kPa, x2 = 0.9	68.207 ± 0.052
349.94 K, 7998 kPa, x2 = 0.95	71.871 ± 0.054
349.94 K, 8997 kPa, x2 = 0.5001	44.504 ± 0.037
349.94 K, 8998 kPa, x2 = 0.9	76.424 ± 0.053
349.94 K, 8999 kPa, x2 = 0.95	80.553 ± 0.055
349.94 K, 9995 kPa, x2 = 0.5001	49.185 ± 0.038
349.94 K, 9996 kPa, x2 = 0.9	84.544 ± 0.053
349.94 K, 9999 kPa, x2 = 0.95	89.144 ± 0.055
349.94 K, 10995 kPa, x2 = 0.5001	53.825 ± 0.038
349.94 K, 10996 kPa, x2 = 0.9	92.584 ± 0.054
349.94 K, 10998 kPa, x2 = 0.95	97.623 ± 0.056
349.94 K, 11994 kPa, x2 = 0.5001	58.4 ± 0.039
349.94 K, 11995 kPa, x2 = 0.95	105.989 ± 0.056
349.94 K, 11997 kPa, x2 = 0.9	100.534 ± 0.054
349.94 K, 12994 kPa, x2 = 0.9	108.364 ± 0.055
349.94 K, 12996 kPa, x2 = 0.5001	62.939 ± 0.039
349.94 K, 13990 kPa, x2 = 0.5001	67.389 ± 0.039
349.94 K, 14000 kPa, x2 = 0.9	116.157 ± 0.055
349.94 K, 14992 kPa, x2 = 0.5001	71.82 ± 0.039
349.94 K, 14999 kPa, x2 = 0.9	123.797 ± 0.055
349.94 K, 15993 kPa, x2 = 0.9	131.294 ± 0.056
349.94 K, 15994 kPa, x2 = 0.5001	76.196 ± 0.04
349.94 K, 16996 kPa, x2 = 0.5001	80.519 ± 0.04
349.94 K, 16996 kPa, x2 = 0.95	146.347 ± 0.059
349.94 K, 17001 kPa, x2 = 0.9	138.788 ± 0.056
349.94 K, 17991 kPa, x2 = 0.5001	84.762 ± 0.041
349.94 K, 17997 kPa, x2 = 0.9	146.084 ± 0.057
349.94 K, 18002 kPa, x2 = 0.95	154.124 ± 0.059
349.94 K, 18991 kPa, x2 = 0.5001	88.967 ± 0.041
349.94 K, 18992 kPa, x2 = 0.9	153.266 ± 0.058
349.94 K, 18992 kPa, x2 = 0.95	161.661 ± 0.06
349.94 K, 19744 kPa, x2 = 0.9	158.626 ± 0.058
349.94 K, 19885 kPa, x2 = 0.5001	92.681 ± 0.042
349.94 K, 19940 kPa, x2 = 0.95	168.761 ± 0.06
